Data on 18 molecules can be found in patent publication US4332805A, “Decahydroquinolinol derivatives and methods of treating cardiac arrythmias or inducing local anaesthesia with them” (priority 1979, dated 1982).

Where a name gives a salt, the structure may show the parent alone.

A short description of the first test: LAWSON test: protection against chloroform-induced ventricular fibrillation. It is filed as in vivo, mice. The settings on record: Mus musculus, po, 0.5 h, read-out: AD50 (dose protecting 50% of the animals against ventricular fibrillation). The protocol: The arrhythmia was induced, in this test, by inhalation of chloroform until breathing stopped.
For each dose of the substance to be studied, batches of 10 female mice, each of about 20 g, were used. These mice had been fasting for 18 hours before the test. A batch of 10 animals was used as control group.
A dose of the compound to be studied was first administered by intragastric route except to the controls which only received the solvent used with the compound in question. Thirty minutes later, the animals were placed under a dome-shaped receptacle containing a high concentration of chloroform obtained by means of a strongly impregnated pad.
The animals were removed when totally asphyxiated (about 2 minutes later), the thorax was rapidly opened and the ventricular rhythm observed. The dose of the compound under study which protected 50% of the animals against ventricular fibrillation was then determined.
This protective dose is expressed as AD50 in mg/kg in the following Table. […]
Another comparative test was performed under the same conditions with
several compounds included within the scope of U.S. Pat. No. 3,882,129 at
the single dose of 100 mg/kg by intragastric route.
The following results were obtained which are expressed in percentage of protection obtained against the arrhythmic effect at the studied dose: […]
On to `CCN(CC)CC(=O)Nc1c(C)cccc1C` [lidocaine, reference compound], for which the ED50 was 35 mg/kg.

Still in this test, the particulars now being: Mus musculus, po, 0.5 h; female mice, intragastric, 30 minutes before chloroform; salts (hydrochloride); read-out: AD50 (dose protecting 50% of the animals against ventricular fibrillation).
`O=C(Nc1ccccc1)O[C@@H]1CCN(CCCOc2ccc(F)cc2)[C@H]2CCCC[C@H]12` (relative stereo) [phenyl, 3, O, 4-fluoro-phenyl, axial, 1-[3-(4-Fluoro-phenoxy)-propyl]-4-(N-phenylcarbamoyloxy)-trans-decahydroquinoline hydrochloride (axial form)]: the ED50 was above 100 mg/kg.

For the molecule `NC(=O)O[C@@H]1CCN(CCCOc2ccc3ccccc3c2)[C@H]2CCCC[C@H]12` (relative stereo) [hydrogen, 3, O, 2-naphthyl, axial, 4-Carbamoyloxy-1-[3-(2-naphthyloxy)-propyl]-trans-decahydroquinoline hydrochloride (axial form)], the ED50 is above 100 mg/kg.

On to `NC(=O)O[C@@H]1CCN(CCCOc2ccccc2)[C@H]2CCCC[C@H]12` (relative stereo) [hydrogen, 3, O, phenyl, axial, 4-Carbamoyloxy-1-(3-phenoxy-propyl)-trans-decahydroquinoline hydrochloride (axial form)], for which the ED50 was above 100 mg/kg.

With `N#Cc1ccc(OCCCN2CC[C@@H](OC(N)=O)[C@H]3CCCC[C@@H]32)cc1` (relative stereo) [hydrogen, 3, O, 4-cyano-phenyl, axial, 4-Carbamoyloxy-1-[3-(4-cyano-phenoxy)-propyl]-trans-decahydroquinoline hydrochloride (axial form)], the ED50 turned out to be 30 mg/kg.

Regarding `NC(=O)O[C@@H]1CCN(CCOc2cccc3ccccc23)[C@H]2CCCC[C@H]12` (relative stereo) [hydrogen, 2, O, 1-naphthyl, axial, 4-Carbamoyloxy-1-[2-(1-naphthyloxy)-ethyl]-trans-decahydroquinoline hydrochloride (axial form)], the ED50 came to 75 mg/kg.

As for `NC(=O)O[C@@H]1CCN(CCOc2ccc(Br)cc2)[C@H]2CCCC[C@H]12` (relative stereo) [hydrogen, 2, O, 4-bromo-phenyl, axial, 1-[2-(4-Bromo-phenoxy)-ethyl]-4 carbamoyloxy-trans-decahydroquinoline hydrochloride (axial form)], the ED50 was 90 mg/kg.

Take `NC(=O)O[C@@H]1CCN(CCOc2ccc(F)cc2)[C@H]2CCCC[C@H]12` (relative stereo) [hydrogen, 2, O, 4-fluoro-phenyl, axial, 4-Carbamoyloxy-1-[2-(4-fluoro-phenoxy)-ethyl]-trans-decahydroquinoline hydrochloride (axial form)]: the ED50 is above 100 mg/kg.

`CCCCNC(=O)O[C@@H]1CCN(CCCOc2ccc(F)cc2)[C@H]2CCCC[C@H]12` (relative stereo) [n-butyl, 3, O, 4-fluoro-phenyl, axial, 4-(N-n-butylcarbamoyloxy)-1-[3-(4-fluoro-phenoxy)-propyl]-trans-decahydroquinoline hydrochloride (axial form)]: the ED50 was determined as 50 mg/kg.

Regarding `CC(=O)c1ccc(OCCCN2CC[C@@H](OC(N)=O)[C@H]3CCCC[C@@H]32)cc1` (relative stereo) [hydrogen, 3, O, 4-acetyl-phenyl, axial, 1-[3-(4-Acetyl-phenoxy)-propyl]-4-carbamoyloxy-trans-decahydroquinoline hydrochloride (axial form)], the ED50 is above 100 mg/kg.

As for `Cc1ccc(NC(=O)O[C@H]2CCN(CCCOc3ccc(F)cc3)[C@H]3CCCC[C@H]23)cc1Cl` (relative stereo) [4-[(3-Chloro-4-methyl-phenyl)-carbamoyloxy]-1-[3-(4-fluoro-phenoxy)-propyl]-trans-decahydroquinoline hydrochloride (equatorial form)], the ED50 came to 30 mg/kg.

Regarding `O=C(Nc1ccc(Br)cc1)O[C@H]1CCN(CCCOc2ccc(F)cc2)[C@H]2CCCC[C@H]12` (relative stereo) [4-[(4-Bromo-phenyl)-carbamoyloxy]-1-[3-(4-fluoro-phenoxy)-propyl]-trans-decahydroquinoline hydrochloride (equatorial form)], the ED50 came to 120 mg/kg.

Consider `NC(=O)O[C@@H]1CCN(CCOc2c(Cl)cccc2Cl)[C@H]2CCCC[C@H]12` (relative stereo) [4-Carbamoyloxy-1-[2-(2,6-dichloro-phenoxy)-ethyl]-trans-decahydroquinoline hydrochloride (axial form)], for which the ED50 is 50 mg/kg.

Regarding `COc1cc(C(C)=O)ccc1OCCCN1CC[C@@H](OC(=O)Nc2ccc(Br)cc2)[C@H]2CCCC[C@@H]21` (relative stereo) [1-[3-(4-Acetyl-2-methoxy-phenoxy)-propyl]-4-[4-(bromo-phenyl)-carbamoyloxy]-trans-decahydroquinoline hydrochloride (axial form)], the ED50 is above 100 mg/kg.

Regarding `CCNC(=O)O[C@@H]1CCN(CCCOc2ccc(F)cc2)[C@H]2CCCC[C@H]12` (relative stereo) [ethyl, 3, O, 4-fluoro-phenyl, axial, 4-(N-Ethylcarbamoyloxy)-1-[3-(4-fluoro-phenoxy)-propyl]-trans-decahydroquinoline hydrochloride (axial form)], the ED50 was found to be 50 mg/kg.

On to `COc1ccccc1OCCN1CC[C@@H](OC(N)=O)[C@H]2CCCC[C@@H]21` (relative stereo) [hydrogen, 2, O, 2-methoxy-phenyl, axial, 4-Carbamoyloxy-1-[2-(2-methoxy-phenoxy)-ethyl]-trans-decahydroquinoline hydrochloride (axial form)], for which the ED50 turned out to be 75 mg/kg.

For the molecule `NC(=O)O[C@@H]1CCN(CCCOc2ccc(Br)cc2)[C@H]2CCCC[C@H]12` (relative stereo) [hydrogen, 3, O, 4-bromo-phenyl, axial, 1-[3-(4-Bromo-phenoxy)-propyl]-4-carbamoyloxy-trans-decahydroquinoline hydrochloride (axial form)], the ED50 amounted to 65 mg/kg.

Staying with this test, now noted: female mice, intragastric, 30 minutes before chloroform; salts (hydrochloride).
On to `CNC(=O)O[C@@H]1CCN(CCCOc2ccc(F)cc2)[C@H]2CCCC[C@H]12` (relative stereo) [methyl, 3, O, 4-fluoro-phenyl, axial, 1-[3-(4-Fluoro-phenoxy)-propyl]-4-(N-methylcarbamoyloxy)-trans-decahydroquinoline hydrochloride (axial form)], for which the “AD50 (dose protecting 50% of the animals against ventricular fibrillation)” value turned out to be 55 mg/kg.

The next test in a line: local anaesthesia, CHANCE and LOBSTEIN technique (eyelid closure after touching cornea). It is filed as in vivo, guinea-pig. The settings on record: guinea-pig eye, 0.1% solution, 5 minutes after administration. The protocol: In this way, the percentage of locally anaesthetized animals were determined with respect to both the dose of compound given and the length of time elapsing after administration.
Take `CCN(CC)CC(=O)Nc1c(C)cccc1C` [lidocaine, reference compound]: the “local anaesthesia, % of animals” value was 26%.

Staying with this test, now noted: guinea-pig eye, 0.5% solution, 15 minutes after administration.
For `CCN(CC)CC(=O)Nc1c(C)cccc1C` [lidocaine, reference compound], the “local anaesthesia, % of animals protected” value was 35%.
